From patent US8273761B2, “Tricyclic compound and medical use thereof” (Takeda Pharmaceutical Company Limited, priority 2006, dated 2012)

Columns and labels:
[1] = biological target: T1, human melatonin 2 receptors (human MT2 receptors) (Homo sapiens, UniProt P49286); experiment: Melatonin receptor binding inhibitory test (MT2); conditions: 2-[125I] Iodomelatonin 1 nM solution, membrane fraction of CHO-hMT2 cells, 25° C. for 2.5 hr
T1 construct: expressed in transfected cells
T1 sequence (P49286 1-362): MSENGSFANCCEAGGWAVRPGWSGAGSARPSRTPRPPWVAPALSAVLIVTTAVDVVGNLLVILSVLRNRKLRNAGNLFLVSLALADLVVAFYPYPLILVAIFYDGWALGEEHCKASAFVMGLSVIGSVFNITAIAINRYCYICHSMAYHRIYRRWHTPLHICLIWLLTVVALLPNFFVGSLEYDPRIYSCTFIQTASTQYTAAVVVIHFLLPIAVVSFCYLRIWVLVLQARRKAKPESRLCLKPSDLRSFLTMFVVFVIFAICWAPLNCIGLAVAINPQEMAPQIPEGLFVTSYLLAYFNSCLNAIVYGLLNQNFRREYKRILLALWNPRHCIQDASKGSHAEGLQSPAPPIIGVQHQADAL
Procedure: Melatonin Receptor Binding Inhibitory Test (2) Preparation of CHO-hMT2 Cells Expressing Human Melatonin 2 Receptors A cDNA fragment (SEQ ID NO: 2) encoding full-length of human melatonin 2 receptors (human MT2 receptors) was incorporated into expression vector pCMV-Script (Stratagene, #212220) to give the plasmid that was pCMV-human MT2 receptors expression vector for animal cell expression. CHO-K1 cells (ATCC, #CCL-61) were plated at the concentration of 1.5×10^5 cells/cm^2 in a 6 well plate (ASAHI TECHNO GLASS), and cultured under the conditions of 37° C., 5% CO2 for 24 hr. For gene transfection, solution obtained by blending pCMV-human MT2 receptors expression vector (1.9 μg), Lipofectamine Transfection Reagent (Invitrogen, #18324-012) (11.3 μL) and Minimum Essential Medium Eagle (MEM) medium (Sigma, M8042) (93.8 μL), and reacting at room temperature for 20 min was added to the cells per one well. The transfected cells were cultured in MEM medium containing 10% FBS (Life Technology) and 300 μg/mL Geneticin (GIBCO, #10131), and the cell line that stably expressed the plasmid gene was selected. By a receptor binding assay using 2-[^125I] […] (3) Preparation of Cellular Membrane Fraction of CHO Cell (CHO-hMelR7 and CHO-hMT2) Stably Expressing Human MT1 and MT2 Receptors CHO-hMelR7 and CHO-hMT2 cells were plated using Cellfactory (Nunc, #170009) under the conditions of 1×10^8 cells/2000 mL/flask. The cells were grown to confluent, and recovered by the following method. As the medium for CHO-hMelR7 and CHO-hMT2, MEM α containing 10% FBS and penicillin/streptomycin was used. 300 ng/mL of geneticin was added to the medium for CHO-hMT2. The medium was discarded, cells were washed twice with 200 mL of EDTA/PBS(-), 200 mL of EDTA/PBS(-) was further added, and the cells were stood still at room temperature for 20 min until they were released. The cells were recovered in four 50 mL tubes (Becton Dickinson, #352070), and centrifuged at 1,500 rpm for 10 min at 4° C. using a low speed cooling centrifuge (Hitachi, CF7D2). The supernatant was discarded, the pellets in the four tubes were suspended in 10 mL of PBS(-), and combined in one tube (Becton Dickinson, #352070). The mixture was further centrifuged at 1,500 rpm for 10 min at 4° C., and the obtained pellets were suspended in 20 mL of ice-cooled homogenizing buffer [10 mM NaHCO3, 5 mM EDTA, Protease inhibitor Complete (Roche), pH 7.4]. The cell suspension was homogenized 3 times using a polytron homogenizer at 20,000 rpm for 30 sec. The obtained homogenate was centrifuged (2,000 rpm, 10 min, 4° C.) using a low speed cooling centrifuge. The supernatant was recovered in an ultracentrifugation tube and ultracentrifuged (40,000 rpm, 60 min, 4° C.) using an ultracentrifuge (Beckman, […]). To the obtained pellets was added a suspending buffer [50 mM Tris-HCl, 1 mM EDTA, Protease inhibitor Complete (Roche), pH 7.4], and the pellets were suspended by pipetting. The protein concentration of this suspension was measured, diluted to 2 mg/mL to give cellular membrane fractions of CHO-hMelR7 and CHO-hMT2 cells. […] Protein was quantified using BCA protein assay kit (Pierce) with BSA as the standard. (4) Preparation of Membrane Fraction Suspension Immediately before use, the membrane fractions of CHO-hMelR7 and CHO-hMT2 cells of the above-mentioned (3) were diluted 20-fold with assay buffer (50 mM Tris-HCl, pH 7.7). (5) Preparation of 2-[^125I] […] (6) Binding Reaction The assay buffer (80 μL) of the above-mentioned (4) was added to each well of a 96-well plate (type 3363, Corning). […] (7) Measurement Using a cell harvester (PerkinElmer), the binding reaction mixture in each well of the 96-well plate was transferred to a treated (immersed in 50 mM Tris, pH 7.7 in advance) filter plate (UniFilter GF/C, PerkinElmer) and filtered.

[2] = biological target: T2, human melatonin 1 receptors (human MT1 receptors) (Homo sapiens, UniProt P48039); experiment: Melatonin receptor binding inhibitory test (MT1); conditions: 2-[125I] Iodomelatonin 400 pM solution, membrane fraction of CHO-hMelR7 cells, 25° C. for 2.5 hr
T2 construct: expressed in transfected cells
T2 sequence (P48039 whole entry): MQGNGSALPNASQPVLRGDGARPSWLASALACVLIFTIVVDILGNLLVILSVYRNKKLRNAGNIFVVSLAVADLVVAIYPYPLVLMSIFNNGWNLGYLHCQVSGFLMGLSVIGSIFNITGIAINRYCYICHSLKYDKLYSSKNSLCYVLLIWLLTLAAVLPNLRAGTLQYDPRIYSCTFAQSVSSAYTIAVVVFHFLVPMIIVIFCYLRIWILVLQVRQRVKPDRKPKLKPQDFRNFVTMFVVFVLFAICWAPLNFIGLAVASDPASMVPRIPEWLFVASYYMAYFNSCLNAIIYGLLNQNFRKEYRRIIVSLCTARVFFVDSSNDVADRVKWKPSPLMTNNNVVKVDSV
Procedure: Biochim Biophys Acta. Vol. 1219(2), pp. 251-259, 1994) to give plasmid pAKKO-hMelR7 for animal cell expression. CHO/dhfr-cells (ATCC, #CRL-9096) were plated at a concentration of 0.3×10^6 cells/dish in a 6 cm culture dish (Becton Dickinson), and cultured under the conditions of 37° C., 5% CO2 for 48 hr. The cells were transfected with pAKKO-hMelR7 plasmid DNA (5 μg) using […] Transfection Kit (Amersham, #27-9268-01). The transfected cells were cultured in Dulbecco's modified Eagle medium (DMEM) (Sigma, #D6046) containing 10% dialyzed FBS ([…]), 1× Non-Essential Amino Acid (Invitrogen, #11140-050) and 50 μg/mL Gentamycin (Invitrogen, #15750-060), and the cell line that stably expressed the plasmid gene was selected. By a receptor binding assay using 2-[^125I] […] (3) Preparation of Cellular Membrane Fraction of CHO Cell (CHO-hMelR7 and CHO-hMT2) Stably Expressing Human MT1 and MT2 Receptors CHO-hMelR7 and CHO-hMT2 cells were plated using Cellfactory (Nunc, #170009) under the conditions of 1×10^8 cells/2000 mL/flask. The cells were grown to confluent, and recovered by the following method. As the medium for CHO-hMelR7 and CHO-hMT2, MEM α containing 10% FBS and penicillin/streptomycin was used. 300 ng/mL of geneticin was added to the medium for CHO-hMT2. The medium was discarded, cells were washed twice with 200 mL of EDTA/PBS(-), 200 mL of EDTA/PBS(-) was further added, and the cells were stood still at room temperature for 20 min until they were released. The cells were recovered in four 50 mL tubes (Becton Dickinson, #352070), and centrifuged at 1,500 rpm for 10 min at 4° C. using a low speed cooling centrifuge (Hitachi, CF7D2). The supernatant was discarded, the pellets in the four tubes were suspended in 10 mL of PBS(-), and combined in one tube (Becton Dickinson, #352070). The mixture was further centrifuged at 1,500 rpm for 10 min at 4° C., and the obtained pellets were suspended in 20 mL of ice-cooled homogenizing buffer [10 mM NaHCO3, 5 mM EDTA, Protease inhibitor Complete (Roche), pH 7.4]. The cell suspension was homogenized 3 times using a polytron homogenizer at 20,000 rpm for 30 sec. The obtained homogenate was centrifuged (2,000 rpm, 10 min, 4° C.) using a low speed cooling centrifuge. The supernatant was recovered in an ultracentrifugation tube and ultracentrifuged (40,000 rpm, 60 min, 4° C.) using an ultracentrifuge (Beckman, […]). To the obtained pellets was added a suspending buffer [50 mM Tris-HCl, 1 mM EDTA, Protease inhibitor Complete (Roche), pH 7.4], and the pellets were suspended by pipetting. The protein concentration of this suspension was measured, diluted to 2 mg/mL to give cellular membrane fractions of CHO-hMelR7 and CHO-hMT2 cells. […] Protein was quantified using BCA protein assay kit (Pierce) with BSA as the standard. (4) Preparation of Membrane Fraction Suspension Immediately before use, the membrane fractions of CHO-hMelR7 and CHO-hMT2 cells of the above-mentioned (3) were diluted 20-fold with assay buffer (50 mM Tris-HCl, pH 7.7). (5) Preparation of 2-[^125I] […] (6) Binding Reaction The assay buffer (80 μL) of the above-mentioned (4) was added to each well of a 96-well plate (type 3363, Corning). […] (7) Measurement Using a cell harvester (PerkinElmer), the binding reaction mixture in each well of the 96-well plate was transferred to a treated (immersed in 50 mM Tris, pH 7.7 in advance) filter plate (UniFilter GF/C, PerkinElmer) and filtered. After filtration, the plate was washed 4 times with the assay buffer, and dried in a dryer (42° C.) for 2 hr or more. 25 μL of a liquid scintillator (MicroScint O, PerkinElmer) was added to each well of the filter plate after drying, and the luminescence of scintillator was measured by TopCount (PerkinElmer) for 1 min. Specific binding is a value obtained by subtracting nonspecific binding from the total binding.

Row | melting point [°C] | IC50 [1] [µM] | IC50 [2] [µM] | SMILES
1 | 104 to 106 | ≤ 0.1 | – | CCC(=O)NCCc1cnn2ccc3occc3c12 [Example 1, N-(2-furo[3,2-c]pyrazolo[1,5-a]pyridin-1-ylethyl)propanamide]
2 | – | – | ≤ 0.1 | CC(=O)NCCC1CCc2cnc3c(c21)CCO3 (centres unmarked) [Example 19, N-[2-(1,6,7,8-tetrahydro-2H-cyclopenta[d]furo[2,3-b]pyridin-8-yl)ethyl]acetamide]
3 | – | – | ≤ 0.1 | O=C(NCCC1CCc2cnc3c(c21)CCO3)C1CC1 (centres unmarked) [Example 26, N-[2-(1,6,7,8-tetrahydro-2H-cyclopenta[d]furo[2,3-b]pyridin-8-yl)ethyl]cyclopropanecarboxamide]
4 | 163 to 164 | – | – | CCC(=O)NC/C=C1\CCc2ncc3c(c21)CCO3 [Example 32, N-[(2E)-2-(1,2,6,7-tetrahydro-8H-cyclopenta[b]furo[3,2-d]pyridin-8-ylidene)ethyl]propanamide]
